Experimental data published in US20090124598A1, “PHARMACEUTICAL USE OF SUBSTITUTED AMIDES” (priority 2005, published 2009).

Target: T1, h-11βHSD1 (Homo sapiens, UniProt P28845)
T1 construct: made in house
Test: 11βHSD1 enzyme assay (SPA)
Assay type: biochemical
Settings: extract of yeast transformed with h-11βHSD1; 120 nM 3H-cortisone, 60 min at 30° C., pH=7.4; read-out: Inhibition of 11βHSD1, h-11βHSD1 IC50 values
Description: 3H-cortisone and anti-rabbit Ig coated scintillation proximity assay (SPA) beads were purchased from Amersham Pharmacia Biotech, P-NADPH was from Sigma and rabbit anticortisol antibodies were from Fitzgerald. An extract of yeast transformed with h-11βHSD1 (Hult et al., FEBS Lett., 441, 25 (1998)) was used as the source of enzyme. The test compounds were dissolved in DMSO (10 mM). All dilutions were performed in a buffer containing 50 mM TRIS-HCl (Sigma Chemical Co), 4 mM EDTA (Sigma Chemical Co), 0.1% BSA (Sigma Chemical Co), 0.01% Tween-20 (Sigma Chemical Co) and 0.005% bacitracin (Novo Nordisk A/S), pH=7.4. Optiplate 96 wells plates were supplied by Packard. The amount of 3H-cortisol bound to the SPA beads was measured on TopCount NXT, Packard.
h-11βHSD1, 120 nM 3H-cortisone, 4 mM β3-NADPH, antibody (1:200), serial dilutions of test compound and SPA particles (2 mg/well) were added to the wells. The reaction was initiated by mixing the different components and was allowed to proceed under shaking for 60 min at 30° C. The reaction was stopped be the addition of 10 fold excess of a stopping buffer containing 500 μM carbenoxolone and 1 μM cortisone. Data was analysed using GraphPad Prism software.

T1 sequence (P28845 whole entry): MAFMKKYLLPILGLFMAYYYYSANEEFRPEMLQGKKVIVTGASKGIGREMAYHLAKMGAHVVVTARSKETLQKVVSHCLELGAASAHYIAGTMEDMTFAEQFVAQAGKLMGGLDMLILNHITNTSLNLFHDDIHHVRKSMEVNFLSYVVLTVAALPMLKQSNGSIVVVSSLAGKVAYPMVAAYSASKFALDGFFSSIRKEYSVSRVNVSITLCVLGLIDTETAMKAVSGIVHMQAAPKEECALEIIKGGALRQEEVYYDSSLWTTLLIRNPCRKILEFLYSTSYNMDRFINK

SMILES	IC50 [nM]
CN(Cc1ccc(C(=O)N2CC3(C)CC2CC(C)(C)C3)cc1)C(=O)c1ccc(S(C)(=O)=O)cc1 (stereo not drawn) [Example 1-28, 4-Methanesulfonyl-N-methyl-N-[4-(1,3,3-trimethyl-6-aza-bicyclo[3.2.1]octane-6-carbonyl)-benzyl]-benzamide]	19
CC(C)N(Cc1ccc(C(=O)N2CC3(C)CC2CC(C)(C)C3)cc1)S(=O)(=O)C(F)(F)F (stereo not drawn) [Example 2-5, Trifluoro-N-isopropyl-N-[4-(1,3,3-trimethyl-6-aza-bicyclo[3.2.1]octane-6-carbonyl)-benzyl]-methanesulfonamide]	10
COC(=O)CN(C)C(=O)N(C)Cc1ccc(C(=O)N2CC3(C)CC2CC(C)(C)C3)cc1 (stereo not drawn) [Example 3-8, {1,3-Dimethyl-3-[4-(1,3,3-trimethyl-6-aza-bicyclo[3.2.1]octane-6-carbonyl)-benzyl]-ureido}-acetic Acid Methyl Ester]	500
